Measurements as given in patent US6489364B2, “Antiviral protease inhibitors” (priority 1997, dated 2002).
Values after ≈ are worked out from the molar mass of the structure shown. Where two headings read alike, the source gives them in different places.

What was measured:
HIV-1 = HIV-1 infected MT4 cell culture, XTT assay; format: cell-based
Protocol: Compounds are also tested for HIV protease activity in cell culture. MT4 cells grown in RPMI 1640 cell culture medium including 10% fetal calf serum are infected with 10 TCID HIV-1 per 2×10^5 cells and cultured for 6 days. XTT is added and the amount of XTT formazan produced in the following 6 hours represents the number of surviving cells. Results are expressed as the ED50, that is the concentration in μg/ml of the compound of the invention which suppresses viral replication by 50%.

purified HIV proteinase = target: T1, purified HIV proteinase (Human immunodeficiency virus type 1 group M subtype B, UniProt P04585); test: biochemical
T1 construct: purified HIV proteinase
Protocol: Representative compounds were tested for HIV protease activity in a spectrophotometric enzyme assay using the chromogenic substrate His-Lys-Ala-Arg-Val-Leu-p-nitro-Phe-Glu-Ala-Nle-Ser-amide and purified HIV proteinase. The rate of cleavage is followed by continuously registering the change in absorbance at 300 nm. […]

[1] = Human immunodeficiency virus 1, MT4, 144 h
[2] = Human immunodeficiency virus 1, 144 h, second part of Table 1, head EC50, MT4 cells, HIV-1, 6 days, XTT, read-out: EC50
[3] = values in parentheses, affinity constant, read-out: (Ki μM)

Row | Compound | EC50 (HIV-1; [1]) | Ki (purified HIV proteinase) | EC50 (HIV-1; [2]) | Ki (purified HIV proteinase; [3])
1 | CNC(=O)[C@@H](NC(=O)[C@H](OCc1ccc(/C=C/C(=O)OC)cc1)[C@H](O)[C@@H](O)[C@@H](OCc1ccc(/C=C/C(=O)OC)cc1)C(=O)N[C@H](C(=O)NC)C(C)C)C(C)C [Example 31] | 0.3 µg/mL (≈ 0.383 µM) | 0.09 nM | – | –
2 | O=C(N[C@H]1c2ccccc2C[C@H]1O)[C@H](OCc1cccc(F)c1)[C@H](O)[C@@H](O)[C@@H](OCc1cccc(F)c1)C(=O)N[C@H]1c2ccccc2C[C@H]1O [Example 18, N1,N6-di[(1 S,2R)-2-hydroxy-2,3-dihydro-1H-1-indenyl]-(2R,3R,4R,5R)-2,5-di(3-fluorobenzyloxy)-3,4-dihydroxyhexanediamide] | – | – | 0.5 µg/mL (≈ 0.726 µM) | 50 nM
3 | O=C(N[C@H]1c2ccccc2C[C@H]1O)[C@H](OCc1ccccc1F)[C@H](O)[C@@H](O)[C@@H](OCc1ccccc1F)C(=O)N[C@H]1c2ccccc2C[C@H]1O [Example 12, N1,N6-di[(1S,2R)-2-hydroxy-2,3-dihydro-1H-1-indenyl]-(2R,3R,4R,5R)-2,5-di(2-fluorobenzyloxy)-3,4-dihydroxyhexanediamide] | – | – | 0.04 µg/mL (≈ 0.0581 µM) | 0.13 nM
4 | CNC(=O)C(NC(=O)C(OCc1ccc(F)cc1F)C(O)C(O)C(OCc1ccc(F)cc1F)C(=O)NC(C(=O)NC)C(C)C)C(C)C [Example 20, N1,N6-di[(1S)-2-methyl-1-(methylcarbamoyl)propyl]-(2R,3R,4R,5R)-2,5-di[4-(2,4-difluorobenzyl)oxy]-3,4-dihydroxyhexanediamide] | – | – | 0.9 µg/mL (≈ 1.31 µM) | 0.1 nM
5 | O=C(NCc1c(F)cccc1Cl)[C@H](OCc1ccccc1F)[C@H](O)[C@@H](O)[C@@H](OCc1ccccc1F)C(=O)N[C@H]1c2ccccc2C[C@H]1O [Example 27, N1-[(1S,2R)-2-hydroxy-2,3-dihydro-1H-1-indenyl]-N6-(2-chloro-6-fluorobenzyl)-(2R,3R,4R,5R,)-2,5-di(2-fluorobenzyloxy)-3,4-dihydroxyhexanediamide] | – | – | 0.8 µg/mL (≈ 1.14 µM) | 1.4 nM
6 | CNC(=O)C(NC(=O)C(OCc1cccc(F)c1)C(O)C(O)C(OCc1cccc(F)c1)C(=O)NC(C(=O)NC)C(C)C)C(C)C (stereo not shown) [Example 17] | – | – | 0.8 µg/mL (≈ 1.23 µM) | 2 nM
7 | CNC(=O)C(NC(=O)C(OCc1ccccc1)C(O)C(O)C(OCc1ccccc1)C(=O)NC1c2ccccc2CC1O)C(C)C [Example 11, N1-[(1S,2R)-2-hydroxy-2,3-dihydro-1H-1-indenyl]-N6-[(1S)-2-methyl-1-(methylcarbamoyl)propyl]-(2R,3R,4R,5R,)-2,5-di(benzyloxy)-3,4-dihydroxyhexanediamide] | – | – | 0.2 µg/mL (≈ 0.316 µM) | 1.2 nM
8 | CNC(=O)C(NC(=O)C(OCc1ccc(-c2ccccn2)cc1)C(O)C(O)C(OCc1ccc(-c2ccccn2)cc1)C(=O)NC(C(=O)NC)C(C)C)C(C)C [Example 22, N1,N6-di[(1S)-2-methyl-1-(methylcarbamoyl)propyl]-(2R,3R,4R,5R)-2.5-di[4-(2-pyridyl)benzyloxy]-3,4-dihydroxyhexanediamide] | 0.4 µg/mL (≈ 0.52 µM) | 0.61 nM | – | –
